One block for each compound: values may come before it.
Tests used:
[1] = ^13C breath test, oral administration, diabetic vs normal rats; assay type: in vivo, rat; conditions: for slope from 12 to 17 min after the administration: 90 mg/kg orally, Example 38; for slope from 20 to 30 min after the administration / Δ^13C value (‰) at 30 min after the administration: 300 mg/kg orally, Example 6
Experimental: As test animals, male Sprague-Dawley strain (SD) neonatal rats were purchased from Nippon Charles River K. K. together with their lactating rats. They were bred at 23±2° C. under 55±10% humidity before use. Insulin secretion-deficient type diabetes was generated by administering streptozotocin (STZ) to neonatal rats (“Saibokogaku (Cell Engineering)”, Extra Issue, medical Experiment Manual Series, Strategy for Study of Diabetes, edited by Susumu Seino and Yoshikazu Oka, published by Shujunsha Co., Japan). STZ was subcutaneously administered to 2-day-old rats at a dose of 90 mg/kg. The STZ had been dissolved in a citrate buffer (pH 4.5) and was administered within 5 min after the dissolution. Two days after the administration, blood was collected by cardiac puncture, and the casual blood sugar level of each rat was measured with Terumo […] (blood sugar measurement set). […] However, their fasting blood sugar levels increase only slightly and remain at almost normal levels. According to the standards stipulated by the Japan Diabetes Society (1982), those individuals with a fasting blood sugar level (in venous whole blood) of […] or more are regarded as having diabetes (“[…] (Diabetes Test Manual)”, edited by Yukio […], published by Nanko-Do Co., Japan). Then, those rats with a fasting blood sugar level of less than 120 mg/dl (and with a casual blood sugar level of 250 mg/dl or more) which are not regarded as having diabetes in a fasting blood sugar level test were selected from the above-described rats with insulin secretion-deficient type diabetes and used as a model of light diabetes. Breath tests were carried out according to the method as described in (2)-1 or (2)-2 below on diabetic rats prepared in (1) above (8-10-week-old) and normal rats (8-10-week-old). Δ^13C (‰)=[(^13C t min-^13C 0 min)/^13C std]×1000 […] A blood sample was collected from the tail vein, and its sugar level was determined using Terumo […] (blood sugar measurement set). The exhalation was sucked with a stroke pump 18 (variable stroke pump VS-500; Shibata Scientific Technology) at a rate of 100-300 ml/min and introduced directly into a flow cell in ^13CO2 Analyzer EX-130S (Japan Spectroscopic Co., Ltd.) 20. […] Pure Drier ([…] Pure Inc.) was located between the rat holder and the stroke pump 18 to remove moisture in the exhalation (FIG. 1). […] The data output from the ^13CO2 analyzer 20 were incorporated into a personal computer 21 (Apple Power Macintosh 8500) after AD conversion. Using the data processing software Lab VIEW (National Instruments), data on ten points at every 100 msec were added up and averaged at intervals of 5 sec and then converted into ^13C atom %, Δ^13C (‰) and CO2 gas concentration (%), to thereby perform a continuous measurement ^13C breath test. […] Δ^13C (‰) was calculated by the formula described above.

[2] = ^13C breath test, intravenous administration (femoral vein), diabetic vs normal rats; assay type: in vivo, rat; conditions: for Δ^13C value (‰) at 5 min after the administration: Example 24
Source text: As test animals, male Sprague-Dawley strain (SD) neonatal rats were purchased from Nippon Charles River K. K. together with their lactating rats. […] Insulin secretion-deficient type diabetes was generated by administering streptozotocin (STZ) to neonatal rats (“Saibokogaku (Cell Engineering)”, Extra Issue, medical Experiment Manual Series, Strategy for Study of Diabetes, edited by Susumu Seino and Yoshikazu Oka, published by Shujunsha Co., Japan). STZ was subcutaneously administered to 2-day-old rats at a dose of 90 mg/kg. […] Two days after the administration, blood was collected by cardiac puncture, and the casual blood sugar level of each rat was measured with Terumo […] (blood sugar measurement set). […] Breath tests were carried out according to the method as described in (2)-1 or (2)-2 below on diabetic rats prepared in (1) above (8-10-week-old) and normal rats (8-10-week-old). […] A blood sample was collected from the tail vein, and its sugar level was determined using Terumo […] (blood sugar measurement set). […] Fine Science Tools Inc.).

[3] = diabetic rats, 60 mg/kg orally, Example 17
[4] = normal rats, 60 mg/kg orally, Example 17
[5] = diabetic rats, 45 mg/kg orally, Example 26
[6] = normal rats, 45 mg/kg orally, Example 26
[7] = diabetic rats, 30 mg/kg orally, Example 7
[8] = normal rats, 30 mg/kg orally, Example 7
[9] = diabetic rats, 10 mg/kg from the femoral vein, Example 34
[10] = normal rats, 10 mg/kg from the femoral vein, Example 34
[11] = diabetic rats, 70 mg/kg from the femoral vein, Example 30
[12] = normal rats, 70 mg/kg from the femoral vein, Example 30
[13] = diabetic rats, 50 mg/kg orally, Example 33
[14] = normal rats, 50 mg/kg orally, Example 33
[15] = diabetic rats, 20 mg/kg from the femoral vein, Example 21
[16] = normal rats, 20 mg/kg from the femoral vein, Example 21
[17] = diabetic rats, 20 mg/kg from the femoral vein, Example 12
[18] = normal rats, 20 mg/kg from the femoral vein, Example 12
[19] = diabetic rats, 40 mg/kg from the femoral vein, Example 36
[20] = normal rats, 40 mg/kg from the femoral vein, Example 36
[21] = diabetic rats, 10 mg/kg from the femoral vein, Example 9
[22] = normal rats, 10 mg/kg from the femoral vein, Example 9

Compound: N[C@@H](C[13c]1ccc(O)cc1)C(=O)O [1-^13C-tyrosine]
- slope from 5 to 10 min after the administration [1, 3]: 79.62±19.90 ‰/5 min
- time course of Δ^13C values (‰) [1, 3]: increased up to about 20 min after the administration, but thereafter decreased gradually up to 30 min
- Δ^13C value (‰) at 20 min after the administration [1, 3]: 205.30±51.43 ‰
- slope from 5 to 10 min after the administration [1, 4]: 27.52±17.10 ‰/5 min
- time course of Δ^13C values (‰) [1, 4]: continued increasing up to 30 min
- Δ^13C value (‰) at 20 min after the administration [1, 4]: 73.96±35.10 ‰

Compound: NC(CSSCC(N)[13C](=O)O)[13C](=O)O (centres unmarked) [1-^13C-cystine]
- slope from 5 to 10 min after the administration [1, 5]: 46.82±2.94 ‰/5 min
- time course of Δ^13C values (‰) [1, 5]: continued increasing up to 30 min
- Δ^13C value (‰) at 10 min after the administration [1, 5]: 69.15±6.44 ‰
- slope from 5 to 10 min after the administration [1, 6]: 30.86±10.06 ‰/5 min
- time course of Δ^13C values (‰) [1, 6]: continued increasing up to 30 min
- Δ^13C value (‰) at 10 min after the administration [1, 6]: 45.26±8.68 ‰

Compound: C[13C](=O)OCC(CO[13C](C)=O)O[13C](C)=O [1,1,1-^13C-triacetin]
- slope from 6 to 10 min after the administration [2, 9]: −6.26±1.50 ‰/4 min
- time course of Δ^13C values (‰) [2, 9]: increased sharply up to about 8 min after the administration, but thereafter decreased gradually up to 20 min
- Δ^13C value (‰) at 4 min after the administration [2, 9]: 41.97±2.79 ‰
- slope from 6 to 10 min after the administration [2, 10]: −0.83±0.90 ‰/4 min
- time course of Δ^13C values (‰) [2, 10]: continued increasing up to 20 min
- Δ^13C value (‰) at 4 min after the administration [2, 10]: 27.29±2.31 ‰

Compound: CC(C)C[C@H](N)[13C](=O)O [1-^13C-leucine]
- Δ^13C value (‰) at 5 min after the administration ([2]; diabetic rats (n=2), 10 mg/kg from the femoral vein): 52.89±10.83 ‰
- Δ^13C value (‰) at 5 min after the administration ([2]; normal rats, 10 mg/kg from the femoral vein): 42.56±2.43 ‰

Compound: CCCCCCC[13C](=O)OCC(CO[13C](=O)CCCCCCC)O[13C](=O)CCCCCCC [1,1,1-^13C-trioctanoin]
- time course of Δ^13C values (‰) [1, 13]: continued increasing up to 30 min
- Δ^13C value (‰) at 20 min after the administration [1, 13]: 150.72±22.48 ‰
- time course of Δ^13C values (‰) [1, 14]: continued increasing up to 30 min
- Δ^13C value (‰) at 20 min after the administration [1, 14]: 110.16±16.08 ‰

Compound: Cl.NCCC[13C@H](N)[13C](=O)O [1,2-^13C-ornithine hydrochloride]
- slope from 2 to 7 min after the administration [2, 17]: 87.79±12.93 ‰/5 min
- time course of Δ^13C values (‰) [2, 17]: increased up to about 14 min after the administration, and thereafter remained at an almost constant level up to 20 min
- Δ^13C value (‰) at 10 min after the administration [2, 17]: 155.70±17.99 ‰
- slope from 2 to 7 min after the administration [2, 18]: 53.56±4.72 ‰/5 min
- time course of Δ^13C values (‰) [2, 18]: continued increasing up to 20 min
- Δ^13C value (‰) at 10 min after the administration [2, 18]: 100.71±5.97 ‰

Compound: C[C@H](N)[13C](=O)O [1-^13C-alanine]
- slope from 5 to 15 min after the administration [2, 21]: −52.09±19.38 ‰/10 min
- time course of Δ^13C values (‰) [2, 21]: sharply increased up to 4 min after the administration of 1-^13C-alanine, but thereafter decreased gradually up to 20 min
- Δ^13C value (‰) at 10 min after the administration [2, 21]: 161.35±6.670 ‰
- slope from 5 to 15 min after the administration [2, 22]: −18.12±7.28 ‰/10 min
- time course of Δ^13C values (‰) [2, 22]: sharply increased up to 4 min after the administration of 1-^13C-alanine, but thereafter decreased gradually up to 20 min
- Δ^13C value (‰) at 10 min after the administration [2, 22]: 132.16±3.53 ‰

Second part, led by results:

- ^13C value (‰) at 30 min after the administration [1, 7]: 144.50±23.27 ‰
- time course of Δ^13C values (‰) [1, 7]: continued increasing up to 20 min
- ^13C value (‰) at 30 min after the administration [1, 8]: 213.89±4.66 ‰
- time course of Δ^13C values (‰) [1, 8]: continued increasing up to 20 min
Compound: U-^13C-starch

- slope from 10 to 20 min after the administration [2, 11]: −12.79±3.72 ‰/10 min
- Δ^13C value (‰) at 8 min after the administration [2, 11]: 132.93±7.09 ‰
- slope from 10 to 20 min after the administration [2, 12]: 13.61±4.58 ‰/10 min
- time course of Δ^13C values (‰) [2, 12]: continued increasing up to 20 min
- Δ^13C value (‰) at 8 min after the administration [2, 12]: 86.51±14.72 ‰
Compound: CCCCCCCC/C=C\CCCCCCC[13C](=O)O [1-^13C-oleic acid]
- time course of Δ^13C values (‰) [2, 11]: increased sharply up to about 8 min after the administration, but thereafter decreased gradually up to 20 min

- Δ^13C value (‰) at 20 min after the administration ([2]; rat, in vivo): 94.68 ‰
- slope from 2 to 6 min after the administration ([2]; rat, in vivo, 100 mg/kg): 21.4±1.84 ‰/4 min
- Δ^13C value (‰) at 20 min after the administration ([2]; rat, in vivo, 100 mg/kg): 58.75±2.73 ‰
Compound: O=[13C](CO)[C@@H](O)[C@H](O)[C@H](O)CO [2-^13C-fructose]

- slope from 12 to 17 min after the administration ([1]; diabetic rats): −8.40±7.67 ‰/5 min
- slope from 12 to 17 min after the administration ([1]; normal rats): 16.05±7.71 ‰/5 min
Compound: ethoxy-^13C-methacetin

- Δ^13C value (‰) at 20 min after the administration [2, 15]: 115.77±6.61 ‰
- Δ^13C value (‰) at 20 min after the administration [2, 16]: 92.27±11.10 ‰
Compound: O=[13C](O)C1CCCN1 (centres unmarked) [1-^13C-proline]
- time course of Δ^13C values (‰) [2, 15]: increased up to about 9 min after the administration of 1-^13C-proline, but thereafter decreased gradually up to 20 min
- time course of Δ^13C values (‰) [2, 16]: increased up to about 9 min after the administration of 1-^13C-proline, but thereafter decreased gradually up to 20 min

- slope from 1 to 2 min after the administration [2, 19]: 95.68±16.33 ‰/min
- Δ^13C value (‰) at 20 min after the administration [2, 19]: 193.62±22.21 ‰
- slope from 1 to 2 min after the administration [2, 20]: 41.16±8.89 ‰/min
- Δ^13C value (‰) at 20 min after the administration [2, 20]: 92.2±12.64 ‰
Compound: Cc1c(N([13CH3])[13CH3])c(=O)n(-c2ccccc2)n1C [N,N-dimethyl-^13C-aminopyrin]
- time course of Δ^13C values (‰) [2, 19]: increased sharply up to about 5 min after the administration, and thereafter remained at an almost constant level up to 20 min
- time course of Δ^13C values (‰) [2, 20]: increased sharply up to about 3 min after the administration of N,N-dimethyl-^13C-aminopyrin, and thereafter increased gradually up to 20 min

- slope from 20 to 30 min after the administration ([1]; diabetic rats): 12.80±2.18 ‰/10 min
- Δ^13C value (‰) at 30 min after the administration ([1]; diabetic rats): 23.40±7.60 ‰
- slope from 20 to 30 min after the administration ([1]; normal rats): 4.61±1.40 ‰/10 min
- Δ^13C value (‰) at 30 min after the administration ([1]; normal rats): 6.82±3.02 ‰
Compound: O=[13CH][C@H](O)[C@@H](O)[C@H](O)CO [1-^13C-xylose]
